Reference: patent publication US9796711B2, “Substituted pyrazolo[3,4-b]pyridin-6-carboxylic acids and method of use” (AbbVie S.àr.l., priority 2015, dated 2017)

What was measured:
ΔF508-CFTR [1] = target: T1, ΔF508-CFTR (Homo sapiens, UniProt P13569, DEL508-508); assay: CFTR cell surface levels using HRP-tagged ΔF508-CFTR expressing CFBE cells, intrinsic corrector capacity; type: cell-based; conditions: HRP-tagged ΔF508-CFTR expressing CFBE cells, intrinsic corrector capacity (no co-corrector), 33° C., 20 hours; for EC50: read-out: EC50
T1 construct: host or cells: CFBE41o-, doxycycline-inducible
Procedure, shortened: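 Here the cells express ΔF508-CFTR with horseradish peroxidase inserted in extracellular loop 4, so only rescued channel at the surface gives luminescent signal. Compounds act on their own, 20 h at the reduced temperature of 33 °C; values are percent activity relative to DMSO and a 3 μM corrector.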

ΔF508-CFTR [2] = target: T1, ΔF508-CFTR; assay: CFTR cell surface levels using HRP-tagged ΔF508-CFTR expressing CFBE cells, in the presence of a co-corrector; type: cell-based; conditions: HRP-tagged ΔF508-CFTR expressing CFBE cells, in the presence of 3 μM co-corrector; for EC50: read-out: EC50
Procedure, shortened: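 Cells were seeded with 0.5 μg/mL doxycycline and held 68 h at 37 °C. Test compounds plus 3 μM co-corrector (final 0.1% DMSO) were then added for 20 h at 33 °C. Washed cells received HRP substrate, and luminescence was normalized between DMSO and 3 μM co-corrector controls.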

T1 sequence (P13569 with tags, fused parts or gaps DEL508-508): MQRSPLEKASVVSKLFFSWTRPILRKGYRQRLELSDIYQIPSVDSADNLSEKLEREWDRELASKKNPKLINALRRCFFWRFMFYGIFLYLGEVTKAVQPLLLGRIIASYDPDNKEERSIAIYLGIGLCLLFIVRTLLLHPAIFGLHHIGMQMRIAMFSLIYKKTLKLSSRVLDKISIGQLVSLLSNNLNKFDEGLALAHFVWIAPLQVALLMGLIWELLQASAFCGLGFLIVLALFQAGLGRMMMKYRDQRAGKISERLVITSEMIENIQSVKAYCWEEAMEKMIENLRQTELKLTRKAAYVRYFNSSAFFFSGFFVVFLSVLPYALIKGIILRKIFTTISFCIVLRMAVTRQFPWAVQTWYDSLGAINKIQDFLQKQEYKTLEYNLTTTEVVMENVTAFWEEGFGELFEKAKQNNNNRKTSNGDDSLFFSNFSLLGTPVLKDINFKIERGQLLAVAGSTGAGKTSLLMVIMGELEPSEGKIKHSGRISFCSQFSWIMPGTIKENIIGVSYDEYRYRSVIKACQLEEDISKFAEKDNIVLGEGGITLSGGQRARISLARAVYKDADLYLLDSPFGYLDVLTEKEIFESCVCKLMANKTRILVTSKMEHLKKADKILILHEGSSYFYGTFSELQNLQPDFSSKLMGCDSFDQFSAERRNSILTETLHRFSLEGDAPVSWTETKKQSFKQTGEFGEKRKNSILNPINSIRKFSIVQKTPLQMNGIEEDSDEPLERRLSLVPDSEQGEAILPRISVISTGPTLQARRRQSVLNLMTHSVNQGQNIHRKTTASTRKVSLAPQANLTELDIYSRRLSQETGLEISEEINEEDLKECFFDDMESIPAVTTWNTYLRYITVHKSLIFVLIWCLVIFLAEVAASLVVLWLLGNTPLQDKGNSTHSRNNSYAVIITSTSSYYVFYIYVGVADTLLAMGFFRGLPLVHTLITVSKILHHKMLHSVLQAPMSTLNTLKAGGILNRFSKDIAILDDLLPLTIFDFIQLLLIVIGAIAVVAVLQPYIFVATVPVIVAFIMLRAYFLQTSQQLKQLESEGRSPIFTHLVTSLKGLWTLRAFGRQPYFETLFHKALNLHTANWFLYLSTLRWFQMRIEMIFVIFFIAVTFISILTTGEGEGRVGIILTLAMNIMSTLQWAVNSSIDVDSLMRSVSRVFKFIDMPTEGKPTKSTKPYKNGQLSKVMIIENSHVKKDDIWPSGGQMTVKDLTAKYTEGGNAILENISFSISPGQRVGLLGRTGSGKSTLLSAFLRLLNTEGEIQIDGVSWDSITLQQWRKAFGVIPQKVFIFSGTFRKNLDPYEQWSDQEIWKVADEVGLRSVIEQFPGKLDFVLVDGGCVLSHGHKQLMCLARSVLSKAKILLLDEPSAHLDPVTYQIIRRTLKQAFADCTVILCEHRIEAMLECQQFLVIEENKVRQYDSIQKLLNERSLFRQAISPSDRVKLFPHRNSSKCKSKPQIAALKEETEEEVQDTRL

SMILES: CN(C)[C@H]1C[C@@H](Oc2cc(C(=O)O)nc3c2c(C2CCC2)nn3-c2ccccc2)C1 [compound 492, 3-cyclobutyl-4-{[cis-3-(dimethylamino)cyclobutyl]oxy}-1-phenyl-1H-pyrazolo[3,4-b]pyridine-6-carboxylic acid]
- % Activation (ΔF508-CFTR [1]): 84.2%
- EC50 (ΔF508-CFTR [1]): 2370 nM
- % Activation (ΔF508-CFTR [2]): 239.55%
- EC50 (ΔF508-CFTR [2]): 2510 nM

SMILES: CC1OCC(Oc2cc(C(=O)O)nc3c2c(C2CCC2)nn3-c2ccccc2)CO1 (stereo not drawn) [compound 493, 3-cyclobutyl-4-[(2-methyl-1,3-dioxan-5-yl)oxy]-1-phenyl-1H-pyrazolo[3,4-b]pyridine-6-carboxylic acid]
- % Activation (ΔF508-CFTR [1]): 129.05%
- EC50 (ΔF508-CFTR [1]): 645 nM
- % Activation (ΔF508-CFTR [2]): 286.5%
- EC50 (ΔF508-CFTR [2]): 396 nM

SMILES: CN1CCC[C@H](Oc2cc(C(=O)O)nc3c2c(C2CCC2)nn3-c2ccccc2)C1 [compound 494, 3-cyclobutyl-4-{[(3S)-1-methylpiperidin-3-yl]oxy}-1-phenyl-1H-pyrazolo[3,4-b]pyridine-6-carboxylic acid]
- % Activation (ΔF508-CFTR [1]): 65.56%
- EC50 (ΔF508-CFTR [1]): 3280 nM
- % Activation (ΔF508-CFTR [2]): 196.7%
- EC50 (ΔF508-CFTR [2]): 1160 nM

SMILES: O=C(O)c1cc(OC2CC3(COC3)C2)c2c(C3CCC3)nn(-c3ccccc3)c2n1 [compound 495, 3-cyclobutyl-4-[(2-oxaspiro[3.3]heptan-6-yl)oxy]-1-phenyl-1H-pyrazolo[3,4-b]pyridine-6-carboxylic acid]
- % Activation (ΔF508-CFTR [1]): 95.96%
- EC50 (ΔF508-CFTR [1]): 1110 nM
- % Activation (ΔF508-CFTR [2]): 235.15%
- EC50 (ΔF508-CFTR [2]): 307 nM

SMILES: CN1CCC[C@@H](Oc2cc(C(=O)O)nc3c2c(C2CCC2)nn3-c2ccccc2)C1 [compound 496, 3-cyclobutyl-4-{[(3R)-1-methylpiperidin-3-yl]oxy}-1-phenyl-1H-pyrazolo[3,4-b]pyridine-6-carboxylic acid]
- % Activation (ΔF508-CFTR [1]): 32.84%
- EC50 (ΔF508-CFTR [1]): 3340 nM
- % Activation (ΔF508-CFTR [2]): 145.5%
- EC50 (ΔF508-CFTR [2]): 2130 nM

SMILES: CC(=O)N1CC(Oc2nn(-c3ccccc3)c3nc(C(=O)O)cc(-c4ccc(N5CCOCC5)cc4)c23)C1 [compound 497, 3-[(1-acetylazetidin-3-yl)oxy]-4-[4-(morpholin-4-yl)phenyl]-1-phenyl-1H-pyrazolo[3,4-b]pyridine-6-carboxylic acid]
- % Activation (ΔF508-CFTR [1]): 24.76%
- EC50 (ΔF508-CFTR [1]): > 10000 nM
- % Activation (ΔF508-CFTR [2]): 157.55%
- EC50 (ΔF508-CFTR [2]): 3340 nM

SMILES: COC(C)C1CCN(c2cc(C(=O)O)nc3c2c(C2CCC2)nn3-c2ccccc2)CC1 (stereo not drawn) [compound 498, 3-cyclobutyl-4-[4-(1-methoxyethyl)piperidin-1-yl]-1-phenyl-1H-pyrazolo[3,4-b]pyridine-6-carboxylic acid]
- % Activation (ΔF508-CFTR [1]): 244.33%
- EC50 (ΔF508-CFTR [1]): 326 nM
- % Activation (ΔF508-CFTR [2]): 435.9%
- EC50 (ΔF508-CFTR [2]): 87.8 nM

SMILES: COC(C)(C1CCN(c2cc(C(=O)O)nc3c2c(C2CCC2)nn3-c2ccccc2)CC1)C(F)(F)F (stereo not drawn) [compound 499, 3-cyclobutyl-1-phenyl-4-[4-(1,1,1-trifluoro-2-methoxypropan-2-yl)piperidin-1-yl]-1H-pyrazolo[3,4-b]pyridine-6-carboxylic acid]
- % Activation (ΔF508-CFTR [1]): 242.93%
- EC50 (ΔF508-CFTR [1]): 393 nM
- % Activation (ΔF508-CFTR [2]): 435.6%
- EC50 (ΔF508-CFTR [2]): 200 nM

SMILES: CCN(CC)C(=O)C1CCCN(c2cc(C(=O)O)nc3c2c(C2CCC2)nn3-c2ccccc2)C1 (stereo not drawn) [compound 500, 3-cyclobutyl-4-[3-(diethylcarbamoyl)piperidin-1-yl]-1-phenyl-1H-pyrazolo[3,4-b]pyridine-6-carboxylic acid]
- % Activation (ΔF508-CFTR [1]): 132.8%
- EC50 (ΔF508-CFTR [1]): 467 nM
- % Activation (ΔF508-CFTR [2]): 289%
- EC50 (ΔF508-CFTR [2]): 296 nM

SMILES: O=C(O)c1cc(N2CCC(O)CC2)c2c(C3CCC3)nn(-c3ccccc3)c2n1 [compound 501, 3-cyclobutyl-4-(4-hydroxypiperidin-1-yl)-1-phenyl-1H-pyrazolo[3,4-b]pyridine-6-carboxylic acid]
- % Activation (ΔF508-CFTR [1]): 152.7%
- EC50 (ΔF508-CFTR [1]): 629 nM
- % Activation (ΔF508-CFTR [2]): 367.65%
- EC50 (ΔF508-CFTR [2]): 353 nM

SMILES: Cc1ncn(C)c(=O)c1CCN1CCN(c2cc(C(=O)O)nc3c2c(C2CCC2)nn3-c2ccccc2)CC1 [compound 502, 3-cyclobutyl-4-{4-[2-(1,4-dimethyl-6-oxo-1,6-dihydropyrimidin-5-yl)ethyl]piperazin-1-yl}-1-phenyl-1H-pyrazolo[3,4-b]pyridine-6-carboxylic acid]
- % Activation (ΔF508-CFTR [1]): 152%
- EC50 (ΔF508-CFTR [1]): 3340 nM
- % Activation (ΔF508-CFTR [2]): 327%
- EC50 (ΔF508-CFTR [2]): 1350 nM

SMILES: CN1C(=O)CO[C@@H]2CN(c3cc(C(=O)O)nc4c3c(C3CCC3)nn4-c3ccccc3)C[C@@H]21 [compound 503, 3-cyclobutyl-4-[(4aS,7aR)-4-methyl-3-oxohexahydropyrrolo[3,4-b][1,4]oxazin-6(2H)-yl]-1-phenyl-1H-pyrazolo[3,4-b]pyridine-6-carboxylic acid]
- % Activation (ΔF508-CFTR [1]): 65.78%
- EC50 (ΔF508-CFTR [1]): 3340 nM
- % Activation (ΔF508-CFTR [2]): 220.8%
- EC50 (ΔF508-CFTR [2]): 3190 nM

SMILES: O=C1CN(c2cc(C(=O)O)nc3c2c(C2CCC2)nn3-c2ccccc2)CCN1 [compound 504, 3-cyclobutyl-4-(3-oxopiperazin-1-yl)-1-phenyl-1H-pyrazolo[3,4-b]pyridine-6-carboxylic acid]
- % Activation (ΔF508-CFTR [1]): 19.62%
- EC50 (ΔF508-CFTR [1]): > 10000 nM
- % Activation (ΔF508-CFTR [2]): 138.9%
- EC50 (ΔF508-CFTR [2]): > 10000 nM

SMILES: O=C1CCC[C@H]2CN(c3cc(C(=O)O)nc4c3c(C3CCC3)nn4-c3ccccc3)C[C@H]2N1 [compound 505, 3-cyclobutyl-4-[(5aS,8aS)-2-oxooctahydropyrrolo[3,4-b]azepin-7(1H)-yl]-1-phenyl-1H-pyrazolo[3,4-b]pyridine-6-carboxylic acid]
- % Activation (ΔF508-CFTR [1]): -6.616%
- EC50 (ΔF508-CFTR [1]): > 10000 nM
- % Activation (ΔF508-CFTR [2]): 118.3%
- EC50 (ΔF508-CFTR [2]): > 10000 nM

SMILES: O=C(O)c1cc(N2CC(F)(F)C[C@@H]2CO)c2c(C3CCC3)nn(-c3ccccc3)c2n1 [compound 506, 3-cyclobutyl-4-[(2R)-4,4-difluoro-2-(hydroxymethyl)pyrrolidin-1-yl]-1-phenyl-1H-pyrazolo[3,4-b]pyridine-6-carboxylic acid]
- % Activation (ΔF508-CFTR [1]): 40.12%
- EC50 (ΔF508-CFTR [1]): 3340 nM
- % Activation (ΔF508-CFTR [2]): 137.7%
- EC50 (ΔF508-CFTR [2]): > 10000 nM

SMILES: O=C(O)c1cc(N2C[C@@H](F)C[C@H]2CO)c2c(C3CCC3)nn(-c3ccccc3)c2n1 [compound 507, 3-cyclobutyl-4-[(2S,4S)-4-fluoro-2-(hydroxymethyl)pyrrolidin-1-yl]-1-phenyl-1H-pyrazolo[3,4-b]pyridine-6-carboxylic acid]
- % Activation (ΔF508-CFTR [1]): 132.8%
- EC50 (ΔF508-CFTR [1]): 2170 nM
- % Activation (ΔF508-CFTR [2]): 218.3%
- EC50 (ΔF508-CFTR [2]): 2520 nM

SMILES: COCC1(F)CCN(c2cc(C(=O)O)nc3c2c(C2CCC2)nn3-c2ccccc2)C1 (stereo not drawn) [compound 508, 3-cyclobutyl-4-[3-fluoro-3-(methoxymethyl)pyrrolidin-1-yl]-1-phenyl-1H-pyrazolo[3,4-b]pyridine-6-carboxylic acid]
- % Activation (ΔF508-CFTR [1]): 104.6%
- EC50 (ΔF508-CFTR [1]): 1110 nM
- % Activation (ΔF508-CFTR [2]): 271.8%
- EC50 (ΔF508-CFTR [2]): 451 nM

SMILES: O=C(O)c1cc(N2CC[C@H](O)[C@H](F)C2)c2c(C3CCC3)nn(-c3ccccc3)c2n1 [compound 509, 3-cyclobutyl-4-[(3R,4S)-3-fluoro-4-hydroxypiperidin-1-yl]-1-phenyl-1H-pyrazolo[3,4-b]pyridine-6-carboxylic acid]
- % Activation (ΔF508-CFTR [1]): 123.6%
- EC50 (ΔF508-CFTR [1]): 1240 nM
- % Activation (ΔF508-CFTR [2]): 344.6%
- EC50 (ΔF508-CFTR [2]): 1670 nM
